According to patent US9889146B2, “Benzoxaborole compounds and uses thereof” (priority 2012, dated 2018):
≈ marks a conversion by molar mass, not a printed value.

Key:
Format in all cases: cell-based
[1] = test system: Escherichia coli 1161435 parent and mutant strains B4, B26 and B35; test: Sensitivity to leucine analogs in MH and M9 media
[2] = test system: P. aeruginosa; test: In vitro activity against P. aeruginosa clinical isolates; details: P. aeruginosa, 2,008 clinical isolates; GSK2251052 based on potential susceptible breakpoint of ≦4 μg/mL
Description: GSK2251052 was tested for activity against P. aeruginosa, and its activity was compared to other antibiotics of known activity. The results are shown below in Tables 2a and 2b. Of 2,008 clinical isolates tested (from 2009-2010 subjects, of which 40% were from North America) greater than 90% were susceptible to GSK2251052 based on a potential susceptible breakpoint of ≦4 μg/mL.

[3] = test system: E. coli ATCC 25922 wild type and mutants; test: MIC, wild type and GSK2251052 resistant mutants; details: Escherichia coli
Description: (§1) Spontaneous Resistance Frequency was determined in vitro for GSK2251052 and the resistance mutants in E. coli ATCC 25922, K. pneumoniae ATCC 13883, and P. aeruginosa ATCC 27853 strains were characterized. GSK2251052 was prepared as described in U.S. Pat. No. 7,816,344 (the entire contents of which are hereby incorporated by reference herein). LB broth, Mueller Hinton II broth (adjusted), and Difco noble agar were obtained from Becton Dickinson (Cockeysville, Md., USA). M9 minimal broth containing 1×M9 salt, 0.5 μg/ML thiamine, 1 mM MgSO4, 0.1 mM CaCl2, 2% glucose, was obtained from Teknova (Hollister, Calif., USA). Antibacterial agents ciprofloxacin, ceftazidime, chloramphenicol, gentamycin, kanamycin, polymixin B, tobramycin and trimethoprim, and amino acids were obtained from Sigma Chemicals (St. Louis, Mo., USA). Strains were obtained from ATCC (Manassas, Va., USA).
(§2) Susceptibility tests were performed following the recommendations for aerobic bacteria (M7-A7) from the Clinical and Laboratories Standards Institute (CLSI).
(§3) Laboratory generated mutants resistant to GSK2251052 contain mutations in the editing domain of LeuRS. Six to ten GSK2251052 resistant colonies of E. coli ATCC 25922, K. pneumoniae ATCC 13883 and P. aeruginosa ATCC 27853 were selected for further analysis and their MICs to GSK2251052 were determined (Table 4-7).

[4] = test system: K. pneumoniae ATCC 13883 wild type and mutants; test: MIC, wild type and GSK2251052 resistant mutants; details: Klebsiella pneumoniae
Description: as §1, §2, §3

[5] = test system: P. aeruginosa ATCC 27853 wild type and mutants; test: MIC, wild type and GSK2251052 resistant mutants; details: Pseudomonas aeruginosa
Description: as §1, §2, §3

[6] = test system: E. coli ATCC 25922 wild type and mutants; test: MIC in M9 minimal media; details: Escherichia coli, read-out: MICs in M9 minimal media
Description: as §1, §2
(§4) The aminoacyl-tRNA synthetase enzyme, LeuRS, ensures the correct amino acid, leucine, is attached to tRNA^Leu. The LeuRS synthetic active site is capable of aminoacylating tRNA^Leu with amino acids structural similar to leucine (norvaline, norleucine, isoleucine and methionine). These mischarged tRNA^Leu are hydrolyzed by the editing domain, thus preventing the deleterious incorporation of incorrect amino acids into the growing polypeptide. The laboratory generated mutants were further tested for their ability to grow in defined media with exogenously added amino acids. Norvaline and norleucine, structurally similar to leucine, were tested in M9 minimal media. […]

[7] = test system: K. pneumoniae ATCC 13883 wild type and mutants; test: MIC in M9 minimal media; details: Klebsiella pneumoniae, read-out: MICs in M9 minimal media
Description: as §1, §2, §4

[8] = test system: P. aeruginosa ATCC 27853 wild type and mutants; test: MIC in M9 minimal media; details: Pseudomonas aeruginosa, read-out: MICs in M9 minimal media
Description: as §1, §2, §4

Compound | MIC (sensitivity to leucine analogs) ([1]; 1161435 Parent, M9) [µg/mL] | MIC (sensitivity to leucine analogs) ([1]; 1161435 Parent, MH) [µg/mL] | MIC (sensitivity to leucine analogs) ([1]; B4 (P339L), M9) [µg/mL] | MIC (sensitivity to leucine analogs) ([1]; B4 (P339L), MH) [µg/mL] | MIC (sensitivity to leucine analogs) ([1]; B26 (R334H), M9) [µg/mL] | MIC (sensitivity to leucine analogs) ([1]; B26 (R334H), MH) [µg/mL] | MIC (sensitivity to leucine analogs) ([1]; B35 (D251N), M9) [µg/mL] | MIC (sensitivity to leucine analogs) ([1]; B35 (D251N), MH) [µg/mL] | further results
NC(CC1CCCC1)C(=O)O (racemic) [3-Cyclopentyl-DL-Alanine] | > 128 | > 128 | > 128 | > 128 | > 128 | > 128 | > 128 | > 128 | 
CN(C)CC(N)C(=O)O.Cl.Cl (racemic) [4-Aza-DL-Leucine dihydrochloride] | 64 | > 128 | 64 | > 128 | 64 | > 128 | 32 | > 128 | 
CC(CC(N)C(=O)O)C(F)(F)F (racemic) [5,5,5-Trifluoro-DL-Leucine] | 128 | > 128 | 128 | > 128 | 64 | > 128 | 64 | > 128 | 
C=CCC(N)C(=O)O (racemic) [DL-2-Allylglycine] | 16 | > 128 | 16 | > 128 | 16 | > 128 | 32 | > 128 | 
CC(=O)CC(N)C(=O)O (racemic) [DL-oxonorvaline] | 128 | > 256 | 64 | > 256 | 64 | > 256 | 128 | > 256 | 
NCC[C@H](O)C(=O)N[C@@H]1C[C@H](N)[C@@H](O[C@H]2O[C@H](CN)[C@@H](O)[C@H](O)[C@H]2O)[C@H](O)[C@H]1O[C@H]1O[C@H](CO)[C@@H](O)[C@H](N)[C@H]1O [Amikacin] |  |  |  |  |  |  |  |  | % susceptible [2]: 90.2%
NC[C@H]1O[C@H](O[C@H]2[C@H](O)[C@@H](O[C@H]3O[C@H](CO)[C@@H](O)[C@H](N)[C@H]3O)[C@H](N)C[C@@H]2N)[C@H](O)[C@@H](O)[C@@H]1O [Kanamycin] |  |  |  |  |  |  |  |  | MIC ([3]; ATCC25922, E wt, read-out: MICs): 4 µg/mL (≈ 8.26 µM); MIC ([3]; ATCC25922, read-out: MICs, mutant E 101): 4 µg/mL (≈ 8.26 µM); MIC ([3]; ATCC25922, read-out: MICs, mutant E 102): 4 µg/mL (≈ 8.26 µM); MIC ([3]; ATCC25922, read-out: MICs, mutant E 107): 8 µg/mL (≈ 16.5 µM); MIC ([4]; ATCC13883, K wt., read-out: MICs): 2 µg/mL (≈ 4.13 µM); MIC ([4]; ATCC13883, read-out: MICs, mutant K 104): 2 µg/mL (≈ 4.13 µM); MIC ([4]; ATCC13883, read-out: MICs, mutant K 105): 2 µg/mL (≈ 4.13 µM); MIC ([4]; ATCC13883, read-out: MICs, mutant K 107): 2 µg/mL (≈ 4.13 µM); MIC ([4]; ATCC13883, read-out: MICs, mutant K 108): 2 µg/mL (≈ 4.13 µM); MIC ([4]; ATCC13883, read-out: MICs, mutant K 110): 1 µg/mL (≈ 2.06 µM); MIC ([5]; ATCC27853, P wt., read-out: MICs): > 64 µg/mL; MIC ([5]; ATCC27853, read-out: MICs, mutant P 101): > 64 µg/mL; MIC ([5]; ATCC27853, read-out: MICs, mutant P106): > 64 µg/mL; MIC ([5]; ATCC27853, read-out: MICs, mutant P108): > 64 µg/mL
CC[C@H](C)[C@H](N)C(=O)O [L-Isoleucine] | > 128 | > 128 | > 128 | > 128 | > 128 | > 128 | > 128 | > 128 | 
CSCC[C@H](N)C(=O)O [L-Methionine] | > 128 | > 128 | > 128 | > 128 | > 128 | > 128 | > 128 | > 128 | 
C[C@@H](O)[C@H](N)C(=O)O [L-Threonine] | > 128 | > 128 | > 128 | > 128 | > 128 | > 128 | > 128 | > 128 | 
CC(C)[C@H](N)C(=O)O [L-Valine] | > 128 | > 128 | > 128 | > 128 | > 128 | > 128 | > 128 | > 128 | 
CCCC[C@H](N)C(=O)O [Norleucine, L-Norleucine] | 32 | > 128 | 16 | > 128 | 8 | > 128 | 16 | > 128 | sensitivity of the mutants ([1]; mutant strains in M9 minimal media): some sensitivity; MIC ([6]; ATCC25922, E 101(leuRS Y246H)): 2 µg/mL (≈ 15.2 µM); MIC ([6]; ATCC25922, E 102(leuRS D345G)): 4 µg/mL (≈ 30.5 µM); MIC ([6]; ATCC25922, E 107(leuRS G229S)): 4 µg/mL (≈ 30.5 µM); MIC ([6]; ATCC25922, E. coli ATCC25922): 4 µg/mL (≈ 30.5 µM); MIC ([7]; ATCC13883, K 104(leuRS D345Y)): 16 µg/mL (≈ 122 µM); MIC ([7]; ATCC13883, K 105(leuRS G229R)): 32 µg/mL (≈ 244 µM); MIC ([7]; ATCC13883, K 107(leuRS S227F)): 64 µg/mL (≈ 488 µM); MIC ([7]; ATCC13883, K 108(leuRS T248P)): 64 µg/mL (≈ 488 µM); MIC ([7]; ATCC13883, K 110(leuRS V338L)): > 64 µg/mL; MIC ([7]; ATCC13883, Klebsiella pneumoniae ATCC13883): 32 µg/mL (≈ 244 µM); MIC ([8]; ATCC27853, P 101 (leuRS T256P)): > 64 µg/mL; MIC ([8]; ATCC27853, P 106 (leuRS V342M)): > 64 µg/mL; MIC ([8]; ATCC27853, P 108 (leuRS T252P)): > 64 µg/mL; MIC ([8]; ATCC27853, P. aeruginosa ATCC27853): > 64 µg/mL
Colistin |  |  |  |  |  |  |  |  | % susceptible [2]: 62.3%
